In patent US20250276983A1, “COMPOUNDS AND METHODS FOR MODULATING HER2” (IAMBIC THERAPEUTICS, INC., priority 2022, published 2025):
Like-named read-outs stand apart in the source and are kept apart here.

Tests used:
Format in all cases: cell-based
[1] = system: BaF3_HER2YVMA cells; assay: Cell growth inhibition assay, BaF3_HER2YVMA; conditions: BaF3_HER2YVMA cells, 3 days treatment, CellTiterGlo 2.0, read-out: HER2-YVMA IC50 (nM), cell growth inhibition
[2] = system: BaF3_HER2WT cells; assay: Cell growth inhibition assay, BaF3_HER2WT; conditions: 72 h, 3 days treatment, CellTiterGlo 2.0, read-out: HER2 WT IC50 (nM), cell growth inhibition
[3] = system: BaF3_EGFRWT cells; assay: Cell growth inhibition assay, BaF3_EGFRWT; conditions: 72 h, 80 ng/mL recombinant human EGF, 3 days treatment, CellTiterGlo 2.0, read-out: EGFR WT IC50 (nM), cell growth inhibition

IC50 ([1]; 72 h) [nM]	IC50 [2] [nM]	IC50 [3] [nM]	IC50 [1] [nM]	Structure (SMILES)
< 200	< 200	1500 to 5000		C=CC(=O)NC1CCN(C(=O)c2ccn3ncnc(Nc4ccc(Oc5ccn6ncnc6c5)c(C)c4)c23)C1 (stereo not drawn) [Example 4, N-(1-(4-((4-([1,2,4]triazolo[1,5-a]pyridin-7-yloxy)-3-methylphenyl)amino)pyrrolo[2,1-f][1,2,4]triazine-5-carbonyl)pyrrolidin-3-yl)acrylamide]
< 200	< 200	1500 to 5000		Cc1cc(Nc2ncnn3ccc(N4CCCC(N(C)C(=O)/C=C/CN(C)C)C4)c23)ccc1Oc1ccn2ncnc2c1 (stereo not drawn) [Example 68, (E)-N-(1-(4-((4-([1,2,4]triazolo[1,5-a]pyridin-7-yloxy)-3-methylphenyl)amino)pyrrolo[2,1-f][1,2,4]triazin-5-yl)piperidin-3-yl)-4-(dimethylamino)-N-methylbut-2-enamide]
< 200	< 200	1500 to 5000		Cc1cc(Nc2ncnn3ccc(C4=CCN(C(=O)/C=C/CN(C)C)CC4)c23)ccc1Oc1ccn2ncnc2c1 [Example 53, (E)-1-(4-(4-((4-([1,2,4]triazolo[1,5-a]pyridin-7-yloxy)-3-methylphenyl)amino)pyrrolo[2,1-f][1,2,4]triazin-5-yl)-3,6-dihydropyridin-1(2H)-yl)-4-(dimethylamino)but-2-en-1-one]
< 200	< 200	1500 to 5000		Cc1cc(Nc2ncnn3ccc(C4CCN(C(=O)[C@@H](F)Cl)CC4)c23)ccc1Oc1ccn2ncnc2c1 (single isomer, unassigned) [Examples 173 and 174, second eluting isomer]
	< 200	1500 to 5000	< 200	Cc1cc(Nc2ncnn3ccc(C4CCN(C(=O)/C=C/CN(C)C)C4)c23)ccc1Oc1ccn2ncnc2c1 (single isomer, unassigned) [Examples 99 and 100, first eluting isomer, (E)-1-(3-(4-((4-([1,2,4]triazolo[1,5-a]pyridin-7-yloxy)-3-methylphenyl)amino)pyrrolo[2,1-f][1,2,4]triazin-5-yl)pyrrolidin-1-yl)-4-(dimethylamino)but-2-en-1-one]
1500 to 5000	200 to 500	1500 to 5000		C=C(F)C(=O)N1CC=C(c2ccn3ncnc(Nc4ccc(Oc5ccn6ncnc6c5)c(C)c4)c23)CC1 [Example 26, 1-(4-(4-((4-([1,2,4]triazolo[1,5-a]pyridin-7-yloxy)-3-methylphenyl)amino)pyrrolo[2,1-f][1,2,4]triazin-5-yl)-3,6-dihydropyridin-1(2H)-yl)-2-fluoroprop-2-en-1-one]
1500 to 5000	500 to 1500	1500 to 5000		C=CC(=O)N1C[C@H]2C[C@@H]1C[C@H]2c1ccn2ncnc(Nc3ccc(Oc4ccn5ncnc5c4)c(C)c3)c12 (relative stereo) [Example 104, Rel-1-[(1S,4S,5R)-5-{4-[(3-methyl-4-{[1,2,4]triazolo[1,5-a]pyridin-7-yloxy}phenyl)amino]pyrrolo[2,1-f][1,2,4]triazin-5-yl}]-2-azabicyclo[2.2.1]heptan-2-yl]prop-2-en-1-one]
< 200	< 200	1500 to 5000		Cc1cc(Nc2ncnn3ccc(C4CCN(C(=O)/C=C/CN5CCOCC5)CC4)c23)ccc1Oc1ccn2ncnc2c1 [Example 56, (E)-1-(4-(4-((4-([1,2,4]triazolo[1,5-a]pyridin-7-yloxy)-3-methylphenyl)amino)pyrrolo[2,1-f][1,2,4]triazin-5-yl)piperidin-1-yl)-4-morpholinobut-2-en-1-one]
500 to 1500	< 200	1500 to 5000		Cc1cc(Nc2ncnn3ccc(C4CCN(C(=O)/C=C/CN5CCN(C)CC5)CC4)c23)ccc1Oc1ccn2ncnc2c1 [Example 24, (E)-1-(4-(4-((4-([1,2,4]triazolo[1,5-a]pyridin-7-yloxy)-3-methylphenyl)amino)pyrrolo[2,1-f][1,2,4]triazin-5-yl)piperidin-1-yl)-4-(4-methylpiperazin-1-yl)but-2-en-1-one]
< 200	< 200	1500 to 5000		Cc1cc(Nc2ncnn3ccc(C4CCN(C(=O)/C=C/CO)CC4)c23)ccc1Oc1ccn2ncnc2c1 [Example 154, (E)-1-(4-(4-((4-([1,2,4]triazolo[1,5-a]pyridin-7-yloxy)-3-methylphenyl)amino)pyrrolo[2,1-f][1,2,4]triazin-5-yl)piperidin-1-yl)-4-hydroxybut-2-en-1-one]
< 200	< 200	1500 to 5000		COC1CN(C/C=C/C(=O)N2CCC(c3ccn4ncnc(Nc5ccc(Oc6ccn7ncnc7c6)c(C)c5)c34)CC2)C1 [Example 117, (E)-1-(4-(4-((4-([1,2,4]triazolo[1,5-a]-207-midazol-7-yloxy)-3-methylphenyl)amino)pyrrolo[2,1-f][1,2,4]triazin-5-yl)piperidin-1-yl)-4-(3-methoxyazetidin-1-yl)but-2-en-1-one]
< 200	< 200	1500 to 5000		Cc1cc(Nc2ncnn3ccc(C4(O)CN(C(=O)/C=C/CN(C)C)C4)c23)ccc1Oc1ccn2ncnc2c1 [Example 51, (E)-1-(3-(4-((4-([1,2,4]triazolo[1,5-a]pyridin-7-yloxy)-3-methylphenyl)amino)pyrrolo[2,1-f][1,2,4]triazin-5-yl)-3-hydroxyazetidin-1-yl)-4-(dimethylamino)but-2-en-1-one]
< 200	< 200	1500 to 5000		Cc1cc(Nc2ncnn3ccc(C4CN(C(=O)/C=C/C56CCCN5CCC6)C4)c23)ccc1Oc1ccn2ncnc2c1 [Example 159, (E)-1-(3-(4-((4-([1,2,4]triazolo[1,5-a]pyridin-7-yloxy)-3-methylphenyl)amino)pyrrolo[2,1-f][1,2,4]triazin-5-yl)azetidin-1-yl)-3-(tetrahydro-1H-pyrrolizin-7a(5H)-yl)prop-2-en-1-one]
500 to 1500	200 to 500	1500 to 5000		Cc1cc(Nc2ncnn3ccc([C@@H]4CCCN(C(=O)[C@H](F)Cl)CC4)c23)ccc1Oc1ccn2ncnc2c1 (single isomer, unassigned) [Examples 145, 146, 147 and 148, fourth eluting isomer]
< 200	< 200	1500 to 5000		Cc1cc(Nc2ncnn3ccc(C4CCN(C(=O)/C=C/CN5CCC6(COC6)C5)CC4)c23)ccc1Oc1ccn2ncnc2c1 [Example 120, E-1-(4-(4-((4-([1,2,4]triazolo[1,5-a]-208-midazol-7-yloxy)-3-methylphenyl)amino)pyrrolo[2,1-f][1,2,4]triazin-5-yl)piperidin-1-yl)-4-(2-oxa-6-azaspiro[3.4]octan-6-yl)but-2-en-1-one]
200 to 500	< 200	1500 to 5000		Cc1cc(Nc2ncnn3ccc(N4CC(NC(=O)/C=C/CN(C)C)C4)c23)ccc1Oc1ccn2ncnc2c1 [Example 71, (E)-N-(1-(4-((4-([1,2,4]triazolo[1,5-a]pyridin-7-yloxy)-3-methylphenyl)amino)pyrrolo[2,1-f][1,2,4]triazin-5-yl)azetidin-3-yl)-4-(dimethylamino)but-2-enamide]
< 200	< 200	1500 to 5000		Cc1cc(Nc2ncnn3ccc(C4CN(C(=O)/C=C/CN(C)C)C4)c23)ccc1Oc1ccn2ccnc2c1 [Example 157, (E)-4-(dimethylamino)-1-(3-(4-((4-(imidazo[1,2-a]pyridin-7-yloxy)-3-methylphenyl)amino)pyrrolo [2,1-f][1,2,4]triazin-5-yl)azetidin-1-yl)but-2-en-1-one]
1500 to 5000	500 to 1500	1500 to 5000		Cc1cc(Nc2ncnn3ccc(C4CCN(C(=O)/C=C/CN)CC4)c23)ccc1Oc1ccn2ncnc2c1 [Example 150, (E)-1-(4-(4-((4-([1,2,4]triazolo[1,5-a]pyridin-7-yloxy)-3-methylphenyl)amino)pyrrolo[2,1-f][1,2,4]triazin-5-yl)piperidin-1-yl)-4-aminobut-2-en-1-one]
< 200	< 200	500 to 1500		C=C(CN(C)C)C(=O)N1CC(c2ccn3ncnc(Nc4ccc(Oc5ccc6c(c5)ncn6C)c(C)c4)c23)C1 [Example 67, 2-((dimethylamino)methyl)-1-(3-(4-((3-methyl-4-((1-methyl-1H-benzo[d]imidazol-5-yl)oxy)phenyl)amino)pyrrolo[2,1-f][1,2,4]triazin-5-yl)azetidin-1-yl)prop-2-en-1-one]
1500 to 5000	1500 to 5000	1500 to 5000		Cc1cc(Nc2ncnn3ccc(C4CN(C(=O)/C(C#N)=C/C(C)(C)C)C4)c23)ccc1Oc1ccn2ncnc2c1 [Example 89, (E)-2-(3-(4-((4-([1,2,4]triazolo[1,5-a]pyridin-7-yloxy)-3-methylphenyl)amino)pyro-lo[2,1-f][1,2,4]triazin-5-yl)azetidine-1-carbonyl)-4,4-dimethylpent-2-enenitrile]
< 200	< 200	1500 to 5000		Cc1cc(Nc2ncnn3ccc(N4CCC(N(C)C(=O)/C=C/CN(C)C)C4)c23)ccc1Oc1ccn2ncnc2c1 (stereo not drawn) [Example 70, (E)-N-(1-(4-((4-([1,2,4]triazolo[1,5-a]pyridin-7-yloxy)-3-methylphenyl)amino)pyrrolo[2,1-f][1,2,4]triazin-5-yl)pyrrolidin-3-yl)-4-(dimethylamino)-N-methylbut-2-enamide]
< 200	< 200	1500 to 5000		Cc1cc(Nc2ncnn3ccc(C4CCN(C(=O)/C=C/CN5CC6COCC6C5)CC4)c23)ccc1Oc1ccn2ncnc2c1 (stereo not drawn) [Example 119, E-1-(4-(4-((4-([1,2,4]triazolo[1,5-a]-208-midazol-7-yloxy)-3-methylphenyl)amino)pyrrolo[2,1-f][1,2,4]triazin-5-yl)piperidin-1-yl)-4-(tetrahydro-1H-furo[3,4-c]pyrrol-5(3H)-yl)but-2-en-1-one]
